The record followed here is publication PMC8185113, “Critical angle reflection imaging for quantification of molecular interactions on glass surface” (Nature Communications, 2021).

Test [1] concerns wild-type SH-EP1 cells. As to the kind of experiment: control: acetylcholine on wild-type SH-EP1 cells (no nAChR) measured by CAR. The class given is binding. The conditions noted are these: wild-type SH-EP1 cells without nAChR, 50, 100, 200 nM. Here is the method: (§1) Most drugs are small molecules, and over 50% drug targets are membrane proteins.
(§2) CAR angle was set at 61.6 degrees with a sensitivity of 112 RIU^−1. The binding kinetic curves (black) were obtained by averaging the CAR response of seven cells and globally fitted to the first-order kinetics (red) (see Supplementary Figure 12b for the response of individual cells).
(§3) All the cell-related experiments including CAR, SPR, transmitted and fluorescence measurements (Figs. 4–6) were performed on an objective-based SPR microscope setup, which consisted of an inverted microscope (Olympus IX-81) and a ×60 (NA 1.49) oil-immersion objective. The light source for CAR and SPR imaging was a superluminescent light-emitting diode (SLED) (SLD-260-HP-TOW-PD-670, Superlum, Ireland) with 670 nm wavelength and 1 mW power set by a SLED current driver (PILOT4-AC, Superlum). The SLED was mounted on a translation stage (PT3, Thorlabs) with a motorized actuator (Z825B, Thorlabs) for adjusting incident angle. […] The light source for transmitted and fluorescence imaging were the stocking halogen and mercury lamp of the microscope, respectively. The excitation and emission wavelength used for imaging Alexa Fluor 488 labelled WGA were 488 nm and 518 nm, respectively, and the power density on the sample was ~0.1 mW/cm^2. A CMOS camera (ORCA-Flash 4.0, Hamamatsu) was used to record the images. […]

Test [2] has as its target T1, nicotinic acetylcholine receptor (nAChR), human α4β2 receptor on SH-EP1_α4β2 cells (Homo sapiens, UniProt P17787+P43681).
T1 construct: expressed in transfected cells; host or cells: SH-EP1 cells (SH-EP1_α4β2), gift from Dr. Jie Wu
As to the kind of experiment: acetylcholine binding to nAChR on SH-EP1_α4β2 cells measured by SPR. The settings on record: SH-EP1_α4β2 cells on gold; 50, 100, 200 nM. How it is done: as §1, §2, §3
In general terms: SPR reads the build-up and loss of mass on a sensor chip optically.

In test [3] the target is T1, nicotinic acetylcholine receptor (nAChR), human α4β2 receptor on SH-EP1_α4β2 cells. As to the kind of experiment: acetylcholine binding to nAChR on fixed SH-EP1_α4β2 cells measured by CAR imaging. The settings on record: 61.6 degrees, average of seven cells, global fit. Here is the method: as §1, §2, §3

T1 sequence (P43681 29-627 limits assumed): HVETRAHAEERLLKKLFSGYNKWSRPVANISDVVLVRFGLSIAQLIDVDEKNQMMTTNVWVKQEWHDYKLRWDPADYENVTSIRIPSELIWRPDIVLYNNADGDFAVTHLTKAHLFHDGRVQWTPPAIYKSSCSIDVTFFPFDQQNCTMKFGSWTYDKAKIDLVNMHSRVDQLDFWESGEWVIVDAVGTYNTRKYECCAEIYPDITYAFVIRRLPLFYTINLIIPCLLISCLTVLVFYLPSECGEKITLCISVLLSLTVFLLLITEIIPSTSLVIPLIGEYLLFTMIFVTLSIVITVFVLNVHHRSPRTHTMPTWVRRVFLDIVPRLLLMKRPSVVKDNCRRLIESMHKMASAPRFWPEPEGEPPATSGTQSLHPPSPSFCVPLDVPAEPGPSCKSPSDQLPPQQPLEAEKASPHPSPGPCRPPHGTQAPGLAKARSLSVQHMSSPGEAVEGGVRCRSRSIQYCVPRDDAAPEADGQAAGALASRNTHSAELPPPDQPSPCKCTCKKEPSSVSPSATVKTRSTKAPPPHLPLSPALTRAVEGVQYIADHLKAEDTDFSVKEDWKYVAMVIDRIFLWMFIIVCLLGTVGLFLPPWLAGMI
T1 sequence (P17787 26-502): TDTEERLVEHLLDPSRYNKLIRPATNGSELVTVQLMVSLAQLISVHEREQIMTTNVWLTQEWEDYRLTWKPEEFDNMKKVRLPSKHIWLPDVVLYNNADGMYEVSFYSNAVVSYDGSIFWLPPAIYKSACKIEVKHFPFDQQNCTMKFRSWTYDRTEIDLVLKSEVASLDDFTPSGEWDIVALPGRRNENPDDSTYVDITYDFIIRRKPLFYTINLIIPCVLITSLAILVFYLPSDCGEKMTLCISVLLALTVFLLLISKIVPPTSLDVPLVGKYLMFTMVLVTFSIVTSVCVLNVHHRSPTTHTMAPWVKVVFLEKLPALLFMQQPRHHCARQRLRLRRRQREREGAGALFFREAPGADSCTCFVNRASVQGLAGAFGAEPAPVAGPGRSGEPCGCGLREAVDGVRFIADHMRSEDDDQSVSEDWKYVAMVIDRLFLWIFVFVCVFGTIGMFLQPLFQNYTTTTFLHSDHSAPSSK

As to `CC(=O)OCC[N+](C)(C)C` [acetylcholine], the CAR response entry in test [1] is on record as “negligible”; in test [1] (listed as Acetylcholine), “No clear CAR response”. For the same molecule, the SPR response result in test [2] is “no measurable response”. The kd result in test [3] was “(1.5±0.1)×10^-3 s^-1”.
